Measured values taken from patent US11673876B2, “Substituted aminobenzyl heteroaryl compounds as EGFR and/or PI3K inhibitors” (Mekanistic Therapeutics LLC, priority 2020, dated 2023).
pIC50: −log10 of the molar value. Converted amounts (≈) assume the structure as drawn.

Columns and labels:
PI3Ka = PI3Ka (Homo sapiens (Human), UniProt P42336); test: Z'-LYTE / Adapta kinase assay, PI3Ka; type: biochemical; settings: for inhibition at 0.1 µM: read-out: PI3Ka % Inh. @ 100 nM
Excerpt: (§1) The Z′-LYTE® biochemical assay employs a fluorescence-based, coupled-enzyme format and is based on the differential sensitivity of phosphorylated and non-phosphorylated peptides to proteolytic cleavage (FIG. 6). The peptide substrate is labeled with two fluorophores one at each end—that make up a FRET pair. In the primary reaction, the kinase transfers the gamma-phosphate of ATP to a single tyrosine, serine or threonine residue in a synthetic FRET-peptide. In the secondary reaction, a site-specific protease recognizes and cleaves non-phosphorylated FRET-peptides. Phosphorylation of FRET-peptides suppresses cleavage by the Development Reagent. Cleavage disrupts FRET between the donor (i.e., coumarin) and acceptor (i.e., fluorescein) fluorophores on the FRET-peptide, whereas uncleaved, phosphorylated FRET-peptides maintain FRET. A ratiometric method, which calculates the ratio (the Emission Ratio) of donor emission to acceptor emission after excitation of the donor fluorophore at 400 nm, is used to quantitate reaction progress.
(§2) A significant benefit of this ratiometric method for quantitating reaction progress is the elimination of well-to-well variations in FRET-peptide concentration and signal intensities. As a result, the assay yields very high Z′-factor values (>0.7) at a low percent phosphorylation.
(§3) Both cleaved and uncleaved FRET-peptides contribute to the fluorescence signals and therefore to the Emission Ratio. The extent of phosphorylation of the FRET-peptide can be calculated from the Emission Ratio.
(§4) Enzyme: The ADAPTA universal kinase assay is a homogenous, fluorescent based immunoassay for the detection of ADP. In contrast to ATP depletion assays, the ADAPTA assay is extremely sensitive to ADP formation such that a majority of the signal change occurs in the first 10-20% conversion of ATP to ADP. This makes the ADAPTA universal kinase assay ideally suited for use with low activity kinases.
(§5) The principle of the ADAPTA universal kinase assay is outlined below. The assay itself can be divided into two phases: a kinase reaction phase, and an ADP detection phase. In the kinase reaction phase, all components required for the kinase reaction are added to the well, and the reaction is allowed to incubate for 60 minutes.
(§6) Z′-LYTE® Assay Conditions:
(§7) Test Compounds: The Test Compounds are screened in 1% DMSO (final) in the well. For 10 point titrations, 3-fold serial dilutions are conducted from the starting concentration.
(§8) Peptide/Kinase Mixtures: All Peptide/Kinase Mixtures are diluted to a 2× working concentration in the appropriate Kinase Buffer.
(§9) ATP Solution: All ATP Solutions are diluted to a 4× working concentration in Kinase Buffer (50 mM HEPES pH 7.5, 0.01% BRIJ-35, 10 mM MgCl2, 1 mM EGTA). ATP Km apparent is previously determined using a Z′-LYTE® assay.
(§10) Development Reagent Solution: The Development Reagent is diluted in Development Buffer. […]
(§11) 2.5 μL—4× Test Compound or 100 nL 100× plus 2.4 μL kinase buffer. 2. 5 μL—2× Peptide/Kinase Mixture. 3. 2.5 μL—4× ATP Solution. 4. 30-second plate shake. 5. 60-minute Kinase Reaction incubation at room temperature. 6. 5 μL—Development Reagent Solution. 7. 30-second plate shake. 8. 60-minute Development Reaction incubation at room temperature. 9.

EGFR = EGFR (Homo sapiens (Human), UniProt P00533); test: Z'-LYTE / Adapta kinase assay, EGFR; type: biochemical; settings: for inhibition at 0.1 µM: read-out: EGFR % Inh. @ 100 nM
Excerpt: as §1, §2, §3, §4, §5, §6, §7, §8, §9, §10, §11

DNA-PK = DNA-PK (Homo sapiens (Human), UniProt P78527); test: Z'-LYTE / Adapta kinase assay, DNA-PK; type: biochemical; settings: for inhibition at 0.1 µM: read-out: DNA-PK % Inh. @ 100 nM
Excerpt: as §1, §2, §3, §4, §5, §6, §7, §8, §9, §10, §11

[1] = Solubility determination (PBS 7.4, SIF, SGF); type: physicochemical; settings: simulated intestinal fluid (SIF), kinetic from dmso stock; simulated intestinal fluid pH 6.8, 25° C., 2 hours; read-out: Solubility SIF
Method: Preparation of stock solutions: The stock solutions of test compounds and control compound diclofenac were prepared in DMSO at the concentrations of 10 mM.
Simulated Gastric Fluid (SGF): An aqueous mixture including hydrochloric acid, sodium chloride, and pepsin (pH=1.2).
Simulated Intestinal Fluid (SIF): Prepared by dissolving 6.8 g of KH2PO4 into about 500 mL ultrapure water and adjust the solution to a pH 6.8 with 0.1 M NaOH. 10 g trypsin is then dissolved into ultrapure water. The two solutions are mixed well and diluted with ultrapure water to a final volume of 1000 mL.
485 μL of (SIF, SGF, PBS 7.4, FESSIF, or FESSGF) was added into each vial of the cap-less Solubility Sample plate. The assay was performed in duplicate. Add one stir stick to each vial and seal using a molded PTFE/Silicone plug. […] After completion of the 2 hours, plugs were removed and the stir sticks were removed using a big magnet, the samples from the Solubility Sample plate were transferred into the filter plate. Using the Vacuum Manifold, all the samples were filtered. Aliquot of 5 μL and 5 μL DMSO were taken from the filtrate followed by addition of 490 μL of a mixture of H2O and acetonitrile containing internal standard (1:1). A certain proportion of ultrapure water was used to dilute the diluent according to the peak shape. The dilution factor was changed according to the solubility values and the LC-MS signal response.
Preparation of 300 μM standards (STD): From the 10 mM DMSO STD plate, 6 μL was transferred into the remaining empty plate, and then 194 μL of DMSO was added to that plate to have a STD concentration of 300 μM. From the 300 μM DMSO STD plate, 5 μL DMSO STD and 5 μL SIF was transferred into the remaining empty plate, and then 490 μL of a mixture of H2O and acetonitrile containing internal standard (1:1) was added to that plate to have a final STD concentration of 3 μM. A certain proportion of ultrapure water was used to dilute the diluent according to the peak shape. The concentrations of the standard samples were changed according to the LC-MS signal response.
Procedure for sample analysis: The plate was placed into the well plate autosampler. The samples were evaluated by LC-MS/MS analysis.
Data analysis: All calculations were carried out using Microsoft Excel. The filtrate was analyzed and quantified against a standard of known concentration using LC coupled with mass spectral peak identification and quantitation. Solubility values of the test compound and control compound were calculated as follows: […]
Any value of the compounds that was not within the specified limits was rejected and the experiment was repeated.

[2] = Metabolic stability in human liver microsomes; type: in vitro ADME
Method: (§12) Working solution: 5 μL of compound and control stock solution (10 mM in dimethyl sulfoxide (DMSO)) were diluted with 495 μL of acetonitrile (ACN) (intermediate solution concentration: 100 μM, 99% ACN)
(§13) NADPH Cofactor Preparation: NADPH powder: β-Nicotinamide adenine dinucleotide phosphate reduced form, tetrasodium salt; NADPH·4Na. The appropriate amount of NADPH powder was weighed and diluted into a 10 mM MgCl2 solution (working solution concentration: 10 unit/mL; final concentration in reaction system: 1 unit/mL)
(§14) Liver Microsomes Preparation: The appropriate concentrations of microsome working solutions were prepared in 100 mM potassium phosphate buffer. Cold (4° C.) acetonitrile (ACN) containing 200 ng/mL tolbutamide and 200 ng/mL labetalol as internal standards (1S) was used as the stop solution
(§15) Assay Procedure: Pre-warm empty ‘Incubation’ plates T60 and NCF60 for 10 minutes. Dilute liver microsomes to 0.56 mg/mL in 100 mM phosphate buffer. Transfer 445 μL microsome working solutions (0.56 mg/mL) into pre-warmed ‘Incubation’ plates T60 and NCF60, Then pre-incubate ‘Incubation’ plates T60 and NCF60 for 10 min at 37° C. with constant shaking. Transfer 54 μL liver microsomes to blank plate, then add 6 μL NAPDH cofactor to blank plate, and then add 180 μL quenching solution to blank plate. Add 5 μL compound working solution (100 μM) into ‘incubation’ plates (T60 and NCF60) containing microsomes and mix 3 times thoroughly.
(§16) For the NCF60 plate, add 50 μL of buffer and mix 3 times thoroughly. Start timing; plate will be incubated at 37° C. for 60 min while shaking. In ‘Quenching’ plate T0, add 180 μL quenching solution and 6 μL NAPDH cofactor. Ensure the plate is chilled to prevent evaporation. For the T60 plate, mix 3 times thoroughly, and immediately remove 54 μL mixture for the 0-min time point to ‘Quenching’ plate. Then add 44 μL NAPDH cofactor to incubation plate (T60). Start timing; plate will be incubated at 37° C. for 60 min while shaking. At 5, 10, 20, 30, and 60 min, add 180 μL quenching solution to ‘Quenching’ plates, mix once, and serially transfer 60 μL sample from T60 plate per time point to ‘Quenching’ plates. For NCF60: mix once, and transfer 60 μL sample from the NCF60 incubation to ‘Quenching’ plate containing quenching solution at the 60-min time point. All sampling plates are shaken for 10 min, then centrifuged at 4000 rpm for 20 minutes at 4° C. Transfer 80 μL supernatant into 240 μL HPLC water, and mix by plate shaker for 10 min. Each bioanalysis plate was sealed and shaken for 10 minutes prior to LC-MS/MS analysis.
(§17) The equation of first order kinetics was used to calculate T½ and CLint(mic) (μL/min/mg). Equation of first order kinetics: […]
(§18) The biological stability of the compounds of the disclosure can be measured by determining its ½ life in the presence microsomes. Presented in Table 5, is the ½ life of selected compounds of the disclosure in the presence of human liver microsomes (HLM) or mouse liver microsomes (MLM) as described above. In Table 5, ½ life is presented as “++++” (value is greater than 60 minutes), “+++” (value is greater than 30 minutes and less than or equal to 60 minutes), “++” (value is greater than 15 minutes and less than or equal to 30 minutes) and “+” (value is 15 minutes or less).

[3] = Metabolic stability in mouse liver microsomes; type: in vitro ADME
Method: as §12, §13, §14, §15, §16, §17, §18

PI3Ka, sequence (P42336 whole entry): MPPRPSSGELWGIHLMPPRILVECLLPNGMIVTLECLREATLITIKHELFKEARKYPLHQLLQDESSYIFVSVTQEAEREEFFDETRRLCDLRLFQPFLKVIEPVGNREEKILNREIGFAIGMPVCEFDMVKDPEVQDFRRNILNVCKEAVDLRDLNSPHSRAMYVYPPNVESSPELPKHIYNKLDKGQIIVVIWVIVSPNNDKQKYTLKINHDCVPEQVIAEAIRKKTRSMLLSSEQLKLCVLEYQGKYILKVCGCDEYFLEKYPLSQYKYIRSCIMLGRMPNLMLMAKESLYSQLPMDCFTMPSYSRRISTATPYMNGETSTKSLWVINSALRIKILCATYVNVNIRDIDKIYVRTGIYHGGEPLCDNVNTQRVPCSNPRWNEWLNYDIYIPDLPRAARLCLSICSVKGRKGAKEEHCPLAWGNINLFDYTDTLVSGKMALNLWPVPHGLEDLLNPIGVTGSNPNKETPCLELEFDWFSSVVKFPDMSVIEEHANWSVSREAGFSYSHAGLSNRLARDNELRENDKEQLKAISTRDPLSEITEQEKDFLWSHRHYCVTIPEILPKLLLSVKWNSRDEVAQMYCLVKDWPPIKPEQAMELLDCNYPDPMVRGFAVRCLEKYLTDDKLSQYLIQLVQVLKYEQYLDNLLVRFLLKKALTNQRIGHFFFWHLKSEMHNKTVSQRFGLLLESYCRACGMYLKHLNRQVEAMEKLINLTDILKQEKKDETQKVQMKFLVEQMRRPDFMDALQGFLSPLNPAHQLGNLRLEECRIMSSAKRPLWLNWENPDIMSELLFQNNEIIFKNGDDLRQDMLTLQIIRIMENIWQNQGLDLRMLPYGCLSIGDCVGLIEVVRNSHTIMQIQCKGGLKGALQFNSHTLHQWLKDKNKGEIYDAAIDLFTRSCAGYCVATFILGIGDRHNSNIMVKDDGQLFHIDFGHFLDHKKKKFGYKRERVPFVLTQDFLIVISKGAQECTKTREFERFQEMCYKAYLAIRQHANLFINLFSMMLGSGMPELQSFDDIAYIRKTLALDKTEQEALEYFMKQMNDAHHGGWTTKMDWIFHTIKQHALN
PI3Ka, sequence (P27986 whole entry partner): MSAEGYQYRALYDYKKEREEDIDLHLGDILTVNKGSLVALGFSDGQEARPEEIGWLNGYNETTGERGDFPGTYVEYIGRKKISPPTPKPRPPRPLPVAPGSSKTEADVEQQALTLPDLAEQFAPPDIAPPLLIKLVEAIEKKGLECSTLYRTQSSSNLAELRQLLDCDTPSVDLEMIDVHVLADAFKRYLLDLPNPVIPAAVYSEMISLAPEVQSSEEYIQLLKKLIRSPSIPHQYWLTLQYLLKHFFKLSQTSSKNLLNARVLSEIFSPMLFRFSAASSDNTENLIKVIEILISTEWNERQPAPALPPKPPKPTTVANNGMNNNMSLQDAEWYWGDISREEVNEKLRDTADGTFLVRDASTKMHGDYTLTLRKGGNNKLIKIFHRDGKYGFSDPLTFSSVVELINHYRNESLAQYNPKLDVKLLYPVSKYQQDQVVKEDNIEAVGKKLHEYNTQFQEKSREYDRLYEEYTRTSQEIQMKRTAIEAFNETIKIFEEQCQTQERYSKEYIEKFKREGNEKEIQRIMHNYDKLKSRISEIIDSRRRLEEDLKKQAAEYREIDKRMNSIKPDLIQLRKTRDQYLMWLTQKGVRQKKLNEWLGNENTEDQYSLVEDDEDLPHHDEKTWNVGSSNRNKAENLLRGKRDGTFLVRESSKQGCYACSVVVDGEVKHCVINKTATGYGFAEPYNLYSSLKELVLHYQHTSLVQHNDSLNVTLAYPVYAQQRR
EGFR, sequence (P00533 25-1210): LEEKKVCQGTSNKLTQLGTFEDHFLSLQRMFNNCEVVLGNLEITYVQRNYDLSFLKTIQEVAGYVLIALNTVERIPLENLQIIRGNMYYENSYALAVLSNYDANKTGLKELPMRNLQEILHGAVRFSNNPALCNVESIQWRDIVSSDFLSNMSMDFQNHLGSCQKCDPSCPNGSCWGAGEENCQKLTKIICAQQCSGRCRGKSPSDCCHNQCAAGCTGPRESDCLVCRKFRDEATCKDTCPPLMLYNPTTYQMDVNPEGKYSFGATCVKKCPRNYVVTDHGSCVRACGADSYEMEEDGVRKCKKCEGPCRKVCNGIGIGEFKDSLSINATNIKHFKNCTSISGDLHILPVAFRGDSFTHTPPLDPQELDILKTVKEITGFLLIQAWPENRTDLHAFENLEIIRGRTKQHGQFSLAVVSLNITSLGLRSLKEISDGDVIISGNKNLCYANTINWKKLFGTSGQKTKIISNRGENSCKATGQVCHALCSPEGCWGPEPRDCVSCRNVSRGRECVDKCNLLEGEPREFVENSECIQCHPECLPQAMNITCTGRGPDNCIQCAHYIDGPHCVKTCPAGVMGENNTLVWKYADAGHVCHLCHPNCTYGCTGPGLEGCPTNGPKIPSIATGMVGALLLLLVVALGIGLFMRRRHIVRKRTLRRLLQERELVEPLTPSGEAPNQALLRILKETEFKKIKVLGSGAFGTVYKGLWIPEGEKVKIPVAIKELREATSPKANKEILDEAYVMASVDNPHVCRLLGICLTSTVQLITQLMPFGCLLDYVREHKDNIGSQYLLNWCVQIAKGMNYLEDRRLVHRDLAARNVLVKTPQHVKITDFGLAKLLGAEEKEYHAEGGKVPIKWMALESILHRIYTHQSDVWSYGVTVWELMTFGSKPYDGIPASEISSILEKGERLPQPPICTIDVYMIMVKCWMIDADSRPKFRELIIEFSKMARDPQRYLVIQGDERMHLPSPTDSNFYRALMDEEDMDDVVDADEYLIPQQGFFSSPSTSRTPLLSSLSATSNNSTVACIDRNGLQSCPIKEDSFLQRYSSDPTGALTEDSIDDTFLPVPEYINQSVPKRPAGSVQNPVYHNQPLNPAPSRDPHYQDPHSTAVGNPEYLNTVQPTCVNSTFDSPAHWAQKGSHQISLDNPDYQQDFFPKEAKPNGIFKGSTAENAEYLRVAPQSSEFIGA

| SMILES | inhibition at 0.1 µM (PI3Ka) [%] | inhibition at 0.1 µM (EGFR) [%] | inhibition at 0.1 µM (DNA-PK) [%] | solubility at 2 h [1] [µM] | pIC50 (PI3Ka) | pIC50 (DNA-PK) | pIC50 (EGFR) | ½ life minutes (HLM) [2] | ½ life minutes (MLM) [3] |
| --- | --- | --- | --- | --- | --- | --- | --- | --- | --- |
| C[C@@H](Nc1c(C#N)cnc2ccc(-c3cnc(Cl)c(NS(C)(=O)=O)c3)cc12)c1ccc(F)cc1 [Compound 97R, N-[2-chloro-5-[3-cyano-4-[[(1R)-1-(4-fluorophenyl)ethyl]amino]-6-quinolyl]-3-pyridyl]methanesulfonamide] | – | 10 to 80 | > 90 | – | – | – | – | ++++ (value is greater than 60 minutes) | ++++ (value is greater than 60 minutes) |
| CS(=O)(=O)Nc1cc(-c2ccc3ncc(C#N)c(NC4(c5ccccc5)CC4)c3c2)cnc1Cl [Compound 106, N-[2-chloro-5-[3-cyano-4-[(1-phenylcyclopropyl)amino]-6-quinolyl]-3-pyridyl]methanesulfonamide] | – | 10 to 80 | > 90 | – | – | – | – | ++++ (value is greater than 60 minutes) | +++ (value is greater than 30 minutes and less than or equal to 60 minutes) |
| CC(Nc1ncnc2ccc(-c3cnc4cnccn34)cc12)c1ccccc1 (centres unmarked) [Compound 139, 6-imidazo[1,2-a]pyrazin-3-yl-N-(1-phenylethyl)quinazolin-4-amine] | 10 to 80 | 10 to 80 | < 10 | – | – | – | – | – | – |
| OCC(Nc1ncnc2ccc(-c3cnc4cnccn34)cc12)c1ccccc1 (centres unmarked) [Compound 140, 2-[(6-imidazo[1,2-a]pyrazin-3-ylquinazolin-4-yl)amino]-2-phenyl-ethanol] | < 10 | 10 to 80 | < 10 | – | – | – | – | – | – |

Now from value to molecule, other results behind:

| inhibition at 0.1 µM (PI3Ka) [%] | inhibition at 0.1 µM (EGFR) [%] | inhibition at 0.1 µM (DNA-PK) [%] | solubility at 2 h [1] [µM] | pIC50 (PI3Ka) | pIC50 (DNA-PK) | pIC50 (EGFR) | SMILES | ½ life minutes (HLM) [2] | ½ life minutes (MLM) [3] |
| --- | --- | --- | --- | --- | --- | --- | --- | --- | --- |
| 10 to 80 | 80 to 90 | 10 to 80 | 20 to 100 (≈ 6.85 to 34.2 µg/mL) | – | – | – | CC(Nc1ncnc2ccc(-c3cnc(N)nc3)cc12)c1ccccc1 (centres unmarked) [Compound 7, 6-(2-aminopyrimidin-5-yl)-N-(1-phenylethyl)quinazolin-4-amine] | – | – |
| 10 to 80 | – | 10 to 80 | 20 to 100 (≈ 7.73 to 38.6 µg/mL) | 6.70 to 7.70 | < 6.70 | – | COc1cc(-c2ccc3ncnc(NC(C)c4ccccc4)c3c2)cnc1OC (centres unmarked) [Compound 22, 6-(5,6-dimethoxy-3-pyridyl)-N-(1-phenylethyl) quinazolin-4-amine] | – | – |
| > 90 | 80 to 90 | > 90 | – | – | – | – | CC(Nc1c(C#N)cnc2ccc(-c3cnc(Cl)c(NS(C)(=O)=O)c3)cc12)c1ccccc1 (centres unmarked) [Compound 48, N-[2-chloro-5-[3-cyano-4-(1-phenylethylamino)-6-quinolyl]-3-pyridyl]methanesulfonamide] | ++++ (value is greater than 60 minutes) | ++++ (value is greater than 60 minutes) |
| > 90 | > 90 | > 90 | – | – | – | 7.70 to 8.70 | C[C@@H](Nc1c(C#N)cnc2ccc(-c3cnc(Cl)c(NS(C)(=O)=O)c3)cc12)c1ccccc1 [Compound 48R, N-(2-chloro-5-(3-cyano-4-((1R-phenylethyl)amino)quinolin-6-yl)pyridin-3-yl)methanesulfonamide] | +++ (value is greater than 30 minutes and less than or equal to 60 minutes) | ++++ (value is greater than 60 minutes) |
| 10 to 80 | 80 to 90 | 80 to 90 | ≤ 20 | 6.70 to 7.70 | 7.70 to 8.70 | 7.70 to 8.70 | CC(Nc1c(C#N)cnc2ccc(-c3cncc(-c4n[nH]c(=O)o4)c3)cc12)c1ccccc1 (centres unmarked) [Compound 129, 6-[5-(2-oxo-3H-1,3,4-oxadiazol-5-yl)-3-pyridyl]-4-(1-phenylethylamino) quinoline-3-carbonitrile] | – | – |
